According to PMC12489660, “Multitargeted Caffeic Acid Derivatives Inhibit Cardiac RyR2- and NaV1.5- Channels but Stimulate SERCA2a Pump Activity” (ACS Omega, 2025):
Several values for one entry are separate records, joined by “and”; a condition that tells them apart may be missing. Identical values can stand only once.

What was measured:
human NaV1.5 = human NaV1.5 (Homo sapiens, UniProt Q14524); assay: FLIPR membrane potential assay on CHO NaV1.5 Duo cells (veratridine-induced); format: cell-based; conditions: for NaV1.5 activity in CHO cells: 10 μM, percentage from the control sample (100%), mean ± SEM; for effect on NaV1.5 activity (in words): concentration range 0.1 to 100 μM
SERCA2 = SERCA2 (Mus musculus, UniProt O55143); assay: Caffeine induced calcium release assay on live HL-1 cardiomyocytes; format: cell-based; conditions: for activation of SERCA2 in HL-1: 10 μM, percentage from the control sample (100%), mean ± SEM; for EC50: 2 h preincubation, 10 mM caffeine, read-out: activation of SERCA2 in HL-1, EC50 (converted);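 as to all read-outs here: Read-out: caffeine-evoked peak minus basal fluorescence (ΔF Caff) of cytoplasmic FLIPR Calcium 6 dye, recorded for 1 min, compared with Tyrode's solution plus 0.1 v/v% DMSO as control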
[1] = PermeaPad membrane permeability; format: in vitro ADME; conditions: not told, room temperature, class low/medium in parentheses, read-out: P e (permeability rate)
Description: We determined permeability rates (P e ), which are a measure of how fast a compound can cross a membrane, using cell-free transport models (PermeaPad, innoME GmbH) The CA derivatives have medium to low permeability rates in the range 1.0–24.0 nm/s (Table ). Similar to S36, despite poor permeability, compounds 2–4, 8, and 9 acted on live RyR2-HEK-293 R-CEPIA1er cells inhibiting RyR2. […] Since PermeaPad is an artificial model that primarily reflects passive diffusion, it is likely that additional mechanisms contribute to the crossing of cell membranes by these compounds.
Membrane permeability was assessed using PermeaPad Plate according to the manufacturing procedure (innoME GmbH, Espelkamp, Germany). Briefly, 200 μL (V A) water was added into acceptor plate. 200 μL (V D) of 100–500 μM test compound in water was added directly to the well membranes of the donor plate. The donor plate contains a biomimetic membrane for simulating passive mass transfer through different barriers in the body. Then the donor plate was placed into the acceptor plate wells and incubated at room temperature for 24 h in dark. To determine peak absorbance of test compounds, absorbance spectra of acceptor solutions and initial solutions for each test compound were read out. The Permeability Rate (P e) was calculated using the formula:
P e = C × −ln (1 – ODA/ODB) cm/s, where OD A is the absorbance of acceptor solution, OD B is the absorbance of the standard solution; if the compound is able to permeabilize the membrane and fully reach equilibrium, 250 μM will be the final concentration of solution in the donor and acceptor wells. The coefficient C was calculated using the formula: C=VD×VA/(VD+VA)×Area×time where V A–acceptor volume (cm^3), V D–donor volume (cm^3), membrane area 0.24 cm^2, time is 86,400 s.

SERCA2a = molecular target: T1, SERCA2a (Mus musculus, UniProt O55143); assay: NADH-coupled ATPase assay on microsomal membrane vesicles from mouse heart ventricles (mouse SER); format: biochemical; conditions: for effect on SERCA2a ATPase activity (in words) / ATPase activity of SERCA2a in mouse SER: 10 μM; for effect on SERCA2a ATPase activity (in words): mouse SER; for ATPase activity of SERCA2a in mouse SER: percentage from the control sample (100%), mean ± SEM; for EC50: kinetic rate of NADH–NAD+ conversion, Figure S10: 200 µM free Ca2+
T1 construct: from tissue; host or cells: adult mouse heart ventricles, microsomal membrane vesicles
Description: To this end, we tracked the rate of nicotinamide adenine dinucleotide (NADH) oxidation linked to ATP hydrolysis by observing changes in NADH fluorescence over time. This was done after addition of ATP to solutions containing microsomal membranes enriched with SER vesicles isolated from adult mouse heart ventricles (mouse SER). The NADH fluorescence decrease was recorded on a FlexStation 3 Multimode Microplate Reader. […] We detected the highest increase in ATPase activity (up to 118%), when the vesicles were treated with borate complex 11–13 (Table ). We tested compounds 11–13 in the NADH assay buffer to see whether these compounds could contribute to the rate of NADH fluorescence reduction (Figures S7–S9). No significant deviations were found in the rate of NADH consumption compared to the control sample (0.1 v/v% DMSO).
Isolation of Microsomal Membrane Vesicles from mouse hearts was done according to procedure described earlier. All animal procedures were performed in accordance with national and institutional regulations.
Mouse ventricular microsomes (4–5 μg of total protein) were diluted in 100 μL of the assay buffer used for measurement of SERCA activity (described below) and incubated at room temperature for 10 min prior to the experiments. The measurements of SERCA2 activity were made at 25 °C by using a NADH -coupled ATPase assay as described in Radnai et al. with slight modifications. Briefly, the assay buffer contained 60 mM MOPS, 120 mM KCl, 6 mM MgCl2, 1 mM EGTA, 5 mM NaN3, 0.5 mM phosphoenolpyruvate and 0.67 mM CaCl2, pH 7.0. Before the reaction was started by the injection of 10 μL ATP (resulting in 2 mM final concentration in the well), 5 units/mL of both lactate dehydrogenase and pyruvate kinase, 0.5 mM NADH, and 1 μM Ca^2+ ionophore A-23187 (Sigma, C-7522) were added to the diluted sample with or without the tested compound (volume −150 μL). […] The NADH fluorescence decrease was recorded each 2 s for 5 min course on a FlexStation 3 Multi-Mode Microplate Reader in 96-well glass bottom plates (MatTek Corporation; Cat. No. PBK96G-1.5-5-F). Fluorescence was evoked by 380 nm excitation wavelength and collected in a bottom-read mode at 425 nm, cutoff–470 nm, 4 flashes per read. ATP was injected at 60 s, speed–125 μL/s, pipet height–140 μL. The data were analyzed with computer software GraphPad Prism version 8.3.1 (GraphPad Software, Inc.). The difference in signal decrease with and without microsomes was taken as an indicator for the additional ATPase activity performed by SERCA2. The obtained values for maximal SERCA2 activity were normalized for total protein concentration. Maximal SERCA2 activity values are reported as percentages of control (0.1% DMSO) values. Microsomal samples that were kept on ice until usage and set to 100%.

wild type mouse RyR2 = molecular target: T2, wild type mouse RyR2 (Mus musculus, UniProt E9Q401); assay: Time-lapse [Ca2+]ER assay in HEK-293 RyR2 R-CEPIA1er cells (RyR2 activity assay); format: cell-based; conditions: 25 μM; for effect on RyR2 activity / [Ca2+]ER (in words): vs control 0.1 v/v% DMSO; for RyR2 activity: percentage from the control sample (100%), mean ± SEM;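 as to all read-outs here: ER Ca2+ read as R-CEPIA1er fluorescence ratio F/F0 (F0 mean of initial 90 s, F mean of final 100 s), compared with vehicle-treated control wells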
T2 construct: expressed in transfected cells; host or cells: HEK-293 cells stably expressing WT RyR2 and R-CEPIA1er (gift of Dr. Takashi Murayama), induced with doxycycline

SERCA2, sequence (O55143 1-994 limits assumed): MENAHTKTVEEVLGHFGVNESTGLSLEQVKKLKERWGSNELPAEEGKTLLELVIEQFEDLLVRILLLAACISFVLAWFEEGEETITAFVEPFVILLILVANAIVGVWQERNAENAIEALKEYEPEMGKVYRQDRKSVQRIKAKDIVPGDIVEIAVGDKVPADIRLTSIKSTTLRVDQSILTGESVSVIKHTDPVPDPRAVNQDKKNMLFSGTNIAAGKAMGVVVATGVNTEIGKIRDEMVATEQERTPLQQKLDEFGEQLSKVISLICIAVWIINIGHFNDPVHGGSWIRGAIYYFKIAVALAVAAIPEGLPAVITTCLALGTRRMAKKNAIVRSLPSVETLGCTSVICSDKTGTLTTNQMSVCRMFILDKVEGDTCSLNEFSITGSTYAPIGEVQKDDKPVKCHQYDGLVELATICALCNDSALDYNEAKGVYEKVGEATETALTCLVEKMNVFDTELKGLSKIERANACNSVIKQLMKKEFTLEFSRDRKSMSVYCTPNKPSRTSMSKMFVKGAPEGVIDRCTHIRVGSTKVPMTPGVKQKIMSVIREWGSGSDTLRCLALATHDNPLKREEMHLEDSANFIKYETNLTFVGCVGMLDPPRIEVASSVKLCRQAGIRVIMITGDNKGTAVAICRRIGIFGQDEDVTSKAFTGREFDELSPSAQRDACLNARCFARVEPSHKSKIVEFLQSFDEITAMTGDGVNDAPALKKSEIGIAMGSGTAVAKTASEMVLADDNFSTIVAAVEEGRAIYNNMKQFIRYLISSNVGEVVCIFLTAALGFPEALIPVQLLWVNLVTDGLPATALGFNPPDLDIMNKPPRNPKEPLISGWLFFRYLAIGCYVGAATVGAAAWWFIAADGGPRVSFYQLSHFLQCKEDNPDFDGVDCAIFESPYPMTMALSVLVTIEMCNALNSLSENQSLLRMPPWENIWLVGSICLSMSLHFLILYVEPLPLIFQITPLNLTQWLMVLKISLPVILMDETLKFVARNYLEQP
human NaV1.5, sequence (Q14524 1-460 limits assumed): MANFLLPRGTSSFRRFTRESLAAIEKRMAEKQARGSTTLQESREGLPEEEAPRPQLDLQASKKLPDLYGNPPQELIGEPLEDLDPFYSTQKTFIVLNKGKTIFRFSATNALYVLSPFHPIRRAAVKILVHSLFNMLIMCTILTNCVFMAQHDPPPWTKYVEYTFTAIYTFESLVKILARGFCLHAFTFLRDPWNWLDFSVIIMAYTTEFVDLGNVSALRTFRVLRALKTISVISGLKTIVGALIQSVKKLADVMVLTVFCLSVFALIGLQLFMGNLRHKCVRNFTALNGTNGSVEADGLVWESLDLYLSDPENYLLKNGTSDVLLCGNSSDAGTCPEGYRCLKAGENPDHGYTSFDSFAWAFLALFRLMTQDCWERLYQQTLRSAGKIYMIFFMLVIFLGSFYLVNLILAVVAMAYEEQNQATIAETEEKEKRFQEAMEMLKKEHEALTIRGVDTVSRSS
human NaV1.5, sequence (Q14524 661-1004 limits assumed): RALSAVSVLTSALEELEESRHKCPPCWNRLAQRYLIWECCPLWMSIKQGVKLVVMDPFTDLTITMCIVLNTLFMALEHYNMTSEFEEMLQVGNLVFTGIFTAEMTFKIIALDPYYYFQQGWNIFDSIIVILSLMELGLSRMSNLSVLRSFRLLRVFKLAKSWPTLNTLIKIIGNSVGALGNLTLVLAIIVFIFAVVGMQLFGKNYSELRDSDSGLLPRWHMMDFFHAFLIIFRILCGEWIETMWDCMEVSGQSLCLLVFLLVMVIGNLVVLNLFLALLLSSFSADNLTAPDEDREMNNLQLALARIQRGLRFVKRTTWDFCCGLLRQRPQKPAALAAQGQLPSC
human NaV1.5, sequence (Q14524 1142-2016 limits assumed): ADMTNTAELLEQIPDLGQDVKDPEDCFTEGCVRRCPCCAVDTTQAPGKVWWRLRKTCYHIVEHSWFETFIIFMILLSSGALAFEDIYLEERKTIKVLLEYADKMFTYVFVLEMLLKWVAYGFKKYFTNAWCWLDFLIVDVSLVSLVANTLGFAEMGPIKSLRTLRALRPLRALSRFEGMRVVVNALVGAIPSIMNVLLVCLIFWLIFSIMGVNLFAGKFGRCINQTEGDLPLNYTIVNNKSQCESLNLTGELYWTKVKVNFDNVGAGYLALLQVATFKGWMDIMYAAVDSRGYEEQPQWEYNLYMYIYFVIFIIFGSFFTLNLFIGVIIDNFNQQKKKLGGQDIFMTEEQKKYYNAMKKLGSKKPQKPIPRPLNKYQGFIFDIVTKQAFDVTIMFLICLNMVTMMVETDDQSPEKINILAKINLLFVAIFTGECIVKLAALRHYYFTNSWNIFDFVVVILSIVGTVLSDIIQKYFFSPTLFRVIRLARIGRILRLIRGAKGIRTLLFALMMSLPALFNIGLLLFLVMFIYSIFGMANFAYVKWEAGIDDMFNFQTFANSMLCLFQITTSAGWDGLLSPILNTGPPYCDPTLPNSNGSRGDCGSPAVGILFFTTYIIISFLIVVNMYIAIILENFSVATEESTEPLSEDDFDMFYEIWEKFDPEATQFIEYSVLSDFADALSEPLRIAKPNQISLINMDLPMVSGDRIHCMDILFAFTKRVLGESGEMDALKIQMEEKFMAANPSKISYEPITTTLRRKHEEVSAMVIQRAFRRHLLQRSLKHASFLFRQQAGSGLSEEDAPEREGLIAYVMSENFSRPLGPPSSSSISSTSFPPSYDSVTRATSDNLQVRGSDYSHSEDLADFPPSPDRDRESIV
T1 sequence (O55143 1-998 isoform O55143-2): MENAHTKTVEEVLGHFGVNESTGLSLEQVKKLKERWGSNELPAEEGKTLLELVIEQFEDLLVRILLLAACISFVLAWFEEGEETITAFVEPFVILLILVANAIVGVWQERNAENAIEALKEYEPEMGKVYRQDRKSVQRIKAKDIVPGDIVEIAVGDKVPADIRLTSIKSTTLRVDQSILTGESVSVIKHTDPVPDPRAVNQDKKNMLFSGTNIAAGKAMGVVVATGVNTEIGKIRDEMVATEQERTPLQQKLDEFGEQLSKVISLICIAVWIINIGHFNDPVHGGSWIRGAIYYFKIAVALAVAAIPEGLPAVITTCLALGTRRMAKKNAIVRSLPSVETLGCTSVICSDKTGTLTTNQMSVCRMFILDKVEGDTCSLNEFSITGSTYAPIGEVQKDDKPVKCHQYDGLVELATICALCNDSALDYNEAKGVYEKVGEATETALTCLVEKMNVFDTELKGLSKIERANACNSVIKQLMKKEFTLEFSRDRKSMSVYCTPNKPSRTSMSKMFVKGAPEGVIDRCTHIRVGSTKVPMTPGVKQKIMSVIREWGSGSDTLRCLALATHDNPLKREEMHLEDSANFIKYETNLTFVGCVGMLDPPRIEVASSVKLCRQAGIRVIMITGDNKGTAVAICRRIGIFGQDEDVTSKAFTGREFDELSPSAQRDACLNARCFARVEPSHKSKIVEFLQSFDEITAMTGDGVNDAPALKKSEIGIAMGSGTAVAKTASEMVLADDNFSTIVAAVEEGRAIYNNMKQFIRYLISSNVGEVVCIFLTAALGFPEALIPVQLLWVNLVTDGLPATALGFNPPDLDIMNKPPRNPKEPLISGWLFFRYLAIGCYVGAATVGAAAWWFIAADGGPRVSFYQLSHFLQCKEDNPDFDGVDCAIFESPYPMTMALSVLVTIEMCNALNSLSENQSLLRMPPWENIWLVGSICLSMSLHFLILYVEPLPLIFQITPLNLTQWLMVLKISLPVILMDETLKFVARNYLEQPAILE

| activation of SERCA2 in HL-1 (SERCA2) [%] | EC50 (SERCA2; HL-1 cells) | Papp at 24 h [1] [×10⁻⁶ cm/s] | effect on SERCA2a ATPase activity (in words) (SERCA2a) | ATPase activity of SERCA2a in mouse SER (SERCA2a) [%] | effect on RyR2 activity / [Ca2+]ER (in words) (wild type mouse RyR2) | RyR2 activity (wild type mouse RyR2) [%] | EC50 (SERCA2a) | effect in caffeine-induced Ca2+ release assay relative to CDN1163 (SERCA2; HL-1 cardiomyocytes) [fold] | increase in the signaling response to caffeine stimulation compared to the control sample (SERCA2; HL-1 cells, maximal effect of the dose-response) | Compound | NaV1.5 activity in CHO cells (human NaV1.5) [%] | concentration of maximal inhibition (human NaV1.5; positive control) [µM] | effect on NaV1.5 (in words) (human NaV1.5; 1 μM) | effect on NaV1.5 (in words) (human NaV1.5; 10–100 μM) | effect on NaV1.5 activity (in words) (human NaV1.5) | effect on NaV1.5 (in words) (human NaV1.5; 100 μM) |
| --- | --- | --- | --- | --- | --- | --- | --- | --- | --- | --- | --- | --- | --- | --- | --- | --- |
| 175.3 ± 7.2 | 1.9 µM | 0.9 | – | 109.8 ± 2.9 | – | 100.1 ± 1.7 | – | – | – | COc1ccc2c(c1)CN(CCCCCCCCNC(=O)/C=C/c1ccc(O)c(O)c1)CCS2 [Compound 7] | 87.4 ± 1.1 | – | activating effect | inhibitory effect | bell-shaped behavior | – |
| 235.4 ± 8.5 | 3.1 µM | 0.9 | – | 112.3 ± 3.5 | did not affect the RyR2 activity | 99.4 ± 0.4 | – | – | – | COc1ccc2c(c1)CN(CCCCCCNC(=O)/C=C/c1ccc(O)c(O)c1)CCS2 [Compound 6] | 88.8 ± 0.9 | – | – | – | – | – |
| 140.3 ± 6.4 | 1.4 µM | 2.7 | significant activation of SERCA2a ATPase | 110.8 ± 4.5 | significantly increased [Ca^2+]ER | 102.2 ± 0.6 | – | – | – | COc1ccc2c(c1)CN(CCCCNC(=O)C(=O)NCCCCCCNC(=O)/C=C/c1ccc(O)c(O)c1)CCS2 [Compound 4] | 108.0 ± 1.6 | – | – | – | – | small but significant activating effect |
| 267.3 ± 11.7 | 13.6 µM | 2.6 | – | 115.7 ± 4.0 | did not affect the RyR2 activity | 100.8 ± 0.7 | 0.03 µM and 0.0296 µM | 2.5 | up to 450% | COc1ccc2c(c1)CN(CCCC[NH+]([BH2-]C#N)C/C=C/c1ccc(O)c(O)c1)CCS2 (stereo not drawn) [Compound 11] | 83.8 ± 1.7 | – | – | – | – | – |

The next lines start with the compound.

| Compound | activation of SERCA2 in HL-1 (SERCA2) [%] | EC50 (SERCA2; HL-1 cells) | Papp at 24 h [1] [×10⁻⁶ cm/s] | effect on SERCA2a ATPase activity (in words) (SERCA2a) | ATPase activity of SERCA2a in mouse SER (SERCA2a) [%] | effect on RyR2 activity / [Ca2+]ER (in words) (wild type mouse RyR2) | RyR2 activity (wild type mouse RyR2) [%] | EC50 (SERCA2a) | effect in caffeine-induced Ca2+ release assay relative to CDN1163 (SERCA2; HL-1 cardiomyocytes) [fold] | increase in the signaling response to caffeine stimulation compared to the control sample (SERCA2; HL-1 cells, maximal effect of the dose-response) | NaV1.5 activity in CHO cells (human NaV1.5) [%] | concentration of maximal inhibition (human NaV1.5; positive control) [µM] | effect on NaV1.5 (in words) (human NaV1.5; 1 μM) | effect on NaV1.5 (in words) (human NaV1.5; 10–100 μM) | effect on NaV1.5 activity (in words) (human NaV1.5) | effect on NaV1.5 (in words) (human NaV1.5; 100 μM) |
| --- | --- | --- | --- | --- | --- | --- | --- | --- | --- | --- | --- | --- | --- | --- | --- | --- |
| COc1ccc(SCCCNC(=O)/C=C/c2ccc(O)c(O)c2)cc1 [Compound 2, (E)-3-(3,4-Dihydroxyphenyl)-N-(3-((4-methoxyphenyl)thio)propyl)acrylamide] | 161.5 ± 9.5 | 11 µM | < 1 | significant activation of SERCA2a ATPase | 109.2 ± 3.6 | RyR2 activators | 96.5 ± 0.4 | – | – | – | 89.7 ± 1.1 | – | – | – | – | – |
| O=C1CN(/N=C/c2ccc(-c3ccc([N+](=O)[O-])cc3)o2)C(O)=N1 [dantrolene, reference compound] | – | – | – | – | – | increase in R-CEPIA1er fluorescence | – | – | – | – | – | – | – | – | – | – |
| CCCCNc1ccc(C(=O)OCCN(C)C)cc1 [tetracaine, reference compound] | – | – | – | – | – | – | – | – | – | – | – | 100 | – | – | – | – |
| COc1ccc2c(c1)CN(CCCCCCCCNC/C=C/c1ccc(O)c(O)c1)CCO2 [Compound 10] | 126.4 ± 13.0 | 47.6 µM | 0.2 | – | 112.3 ± 4.6 | significantly increased [Ca^2+]ER | 102.1 ± 0.4 | – | – | – | 103.0 ± 1.4 | – | – | – | no effect on NaV1.5 | – |
| Cc1ccc2cccc(NC(=O)c3ccc(OC(C)C)cc3)c2n1 [CDN1163, reference compound] | – | 21 µM and 21.2 µM | – | – | – | – | – | – | – | – | – | – | – | – | blocked NaV1.5 | comparable to the maximal effect of tetracaine |
| COc1ccc2c(c1)CN(CCCCCC[NH+]([BH2-]C#N)C/C=C/c1ccc(O)c(O)c1)CCS2 (stereo not drawn) [Compound 12] | 277.8 ± 12.7 | 1.1 µM | 0.4 | – | 118.2 ± 2.5 | significantly increased [Ca^2+]ER | 103.9 ± 0.8 | 0.0023 µM | – | – | 86.2 ± 2.6 | – | – | – | – | – |
| COc1ccc2c(c1)CN(C/C=C/C(=O)NNC(=O)/C=C/c1ccc(O)c(O)c1)CCS2 [Compound 3, (E)-N′-((E)-3-(3,4-Dihydroxyphenyl)acryloyl)-4-(7-methoxy-2,3-dihydrobenzo[1,4-f]thiazepin-4(5H)-yl)but-2-enehydrazide] | 135.4 ± 3.8 | > 3 µM | 3.4 | did not evoke a significant increase in ATPase activity | 100.6 ± 2.5 | significantly increased [Ca^2+]ER | 101.7 ± 0.3 | – | – | – | 94.8 ± 2.1 | – | – | – | – | – |
| O=C(O)C=Cc1ccc(O)c(O)c1 [CA, 3-(3,4-dihydroxyphenyl)-2-propenoic acid, reference compound] | – | – | – | accelerated consumption of NADH | 108.5 ± 2.5 | did not affect the RyR2 activity | 100.9 ± 0.8 | – | – | – | 91.8 ± 2.4 | – | – | – | no effect on NaV1.5 activity | – |
